According to PMC4072508, “Genome-Wide Prediction and Validation of Peptides That Bind Human Prosurvival Bcl-2 Proteins” (PLoS Computational Biology, 2014):
Where two headings read alike, the source gives them in different places.

Experiments:
Bfl-1 [1] = target: T1, Bfl-1 (Homo sapiens, UniProt Q16548); test: Peptide SPOT array binding
T1 construct: myc- Bfl-1 SPOT array & FP; made in house
T1 sequence (Q16548 with tags, fused parts or gaps): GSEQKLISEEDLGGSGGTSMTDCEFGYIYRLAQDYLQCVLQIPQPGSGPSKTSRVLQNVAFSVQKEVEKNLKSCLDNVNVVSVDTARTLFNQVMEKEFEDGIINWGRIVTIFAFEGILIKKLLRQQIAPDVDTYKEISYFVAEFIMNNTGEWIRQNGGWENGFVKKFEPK
Protocol: (§1) Peptide SPOT arrays were synthesized using F-moc chemistry on nitrocellulose membranes at the MIT Biopolymers facility using an Intavis AutoSpot robot. Peptide spots were cut from the membrane, hydrated in 100% methanol, transferred to TBS (50 mM Tris, pH 8.1, 100 mM NaCl, 0.01% Triton X-100) with 1% bovine serum albumin (BSA), here called blocking buffer, and incubated at room temperature for ∼10 minutes. Membranes were then incubated with 10 ml of 1 µM or 100 nM c-Myc-tagged receptor (sequences in Table S6) in TBS for 1 h at room temperature. Membranes were then rinsed 3× with blocking buffer and then incubated with anti-c-myc-Cy3 antibody (Sigma Aldrich C6594) diluted 100-fold in blocking buffer for 1 hour at room temperature. Membranes were rinsed 3× with blocking buffer and scanned on a Typhoon 9400 (GE Healthcare). Images were analyzed with ImageQuant (GE Healthcare), and Cy3 intensity at 580 nm was averaged over a circular area that was equal in size for all spots for a given membrane. Typically, 5–10 known binders and their negative controls were included.

Mcl-1 [2] = target: T2, Mcl-1 (Homo sapiens, UniProt Q07820); test: Peptide SPOT array binding
T2 construct: myc-Mcl-1 SPOT array & FP; made in house
T2 sequence (Q07820 with tags, fused parts or gaps): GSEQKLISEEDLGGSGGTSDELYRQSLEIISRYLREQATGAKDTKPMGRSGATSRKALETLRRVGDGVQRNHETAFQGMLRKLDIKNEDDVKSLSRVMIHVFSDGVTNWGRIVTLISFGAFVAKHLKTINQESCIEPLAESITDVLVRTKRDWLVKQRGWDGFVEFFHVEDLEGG
Protocol: as §1

Bcl-xL [3] = target: T3, Bcl-xL (Homo sapiens, UniProt Q07817); test: Peptide SPOT array binding; conditions: c-Myc-tagged receptor 1 µM or 100 nM, anti-c-myc-Cy3 read-out
T3 construct: myc-Bcl-xL SPOT array & FP; made in house
T3 sequence (Q07817 with tags, fused parts or gaps): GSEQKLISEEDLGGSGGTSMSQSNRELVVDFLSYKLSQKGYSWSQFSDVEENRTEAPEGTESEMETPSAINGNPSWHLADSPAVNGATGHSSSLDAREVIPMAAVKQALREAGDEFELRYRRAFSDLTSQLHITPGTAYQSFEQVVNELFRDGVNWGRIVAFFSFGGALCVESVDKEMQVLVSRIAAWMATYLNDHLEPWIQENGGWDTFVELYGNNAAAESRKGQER
Protocol: as §1

Bcl-w [4] = target: T4, Bcl-w (Homo sapiens, UniProt Q92843, Q133R); test: Peptide SPOT array binding; conditions: c-Myc-tagged receptor 1 µM or 100 nM, anti-c-myc-Cy3 read-out
T4 construct: myc-Bcl-w SPOT array & FP; made in house
T4 sequence (Q92843 with tags, fused parts or gaps Q133R): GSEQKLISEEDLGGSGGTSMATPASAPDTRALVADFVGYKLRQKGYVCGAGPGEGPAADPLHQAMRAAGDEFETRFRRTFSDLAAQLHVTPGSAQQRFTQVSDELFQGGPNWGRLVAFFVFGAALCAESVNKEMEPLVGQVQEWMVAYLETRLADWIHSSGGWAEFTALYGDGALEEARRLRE
Protocol: as §1

Bcl-2 [5] = target: T5, Bcl-2 (Homo sapiens, UniProt P10415, DEL53-91); test: Peptide SPOT array binding; conditions: c-Myc-tagged receptor 1 µM or 100 nM, anti-c-myc-Cy3 read-out
T5 construct: myc- Bcl-2 FP; made in house
T5 sequence (P10415 with tags, fused parts or gaps DEL53-91): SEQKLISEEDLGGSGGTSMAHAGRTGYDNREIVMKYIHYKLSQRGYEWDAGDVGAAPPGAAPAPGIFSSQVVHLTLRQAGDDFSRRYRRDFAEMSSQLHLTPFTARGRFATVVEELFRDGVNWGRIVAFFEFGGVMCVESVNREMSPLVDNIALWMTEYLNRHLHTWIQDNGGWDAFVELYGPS
Protocol: as §1

Mcl-1 [6] = target: T2, Mcl-1; conditions: read-out: Binder class, Mcl-1, cited from earlier work
From the text: Negative control mutatio ...

Bcl-2 [7] = target: T5, Bcl-2; conditions: natural BH3 peptides, interactions taken from literature; read-out: Binder class, Bcl-2; cited from earlier work
Bcl-w [8] = target: T4, Bcl-w; conditions: natural BH3 peptides, interactions taken from literature; read-out: Binder class, Bcl-w; cited from earlier work
Bfl-1 [9] = target: T1, Bfl-1; conditions: natural BH3 peptides, interactions taken from literature; read-out: Binder class, Bfl-1; cited from earlier work
Bcl-xL [10] = target: T3, Bcl-xL; conditions: cited from earlier work
[11] = test system: prosurvival proteins Bcl-xL, Bcl-w, Bcl-2, Mcl-1 and Bfl-1; test: Peptide SPOT array binding, receptor not specified; parameters: species or system human; conditions: for Reduction in SPOT array signal when control mutations were introduced: 3aD and 3eL negative controls, receptor not specified; for SPOT array binding specificity among five prosurvival proteins: array IV
Protocol: as §1

[12] = c-Myc-tagged receptor 1 µM or 100 nM, anti-c-myc-Cy3 read-out
[13] = natural BH3 peptides, interactions taken from literature
[14] = S1 Bim variants, specific binding measured using yeast display, ref Dutta et al. (2010)

Substance | Kd (Mcl-1 [6]; [14]) | Binder class (Kd bin) (Bcl-xL [10]; [14]) | further results
AAQRYGRELRRMSDEFVDSFKKG [Bad] | – | – | Reduction in SPOT array signal for at least one of the negative controls, Bfl-1 (Bfl-1 [1]; 3aD / 3eL mutations): less than 25%; Reduction in SPOT array signal for at least one of the negative controls, Mcl-1 (Mcl-1 [2]; 3aD / 3eL mutations): less than 25%
APOL6: peptide from APOL6, putative BH3 motif (KEDLKGNIDKLRALADDIDKTHKKFT) | – | – | SPOT array signal as % of the Bim BH3 signal, Bcl-xL (Bcl-xL [3]): 17%
EGEKEVEALKKSADWVSDWSSRP [BNIP3L] | – | – | SPOT array signal as % of the Bim BH3 signal, Bfl-1 (Bfl-1 [1]; [12]): 8%; SPOT array signal as % of the Bim BH3 signal, Bcl-xL (Bcl-xL [3]): less than 3%; SPOT array signal as % of the Bim BH3 signal, Mcl-1 (Mcl-1 [2]; [12]): less than 3%; SPOT array signal as % of the Bim BH3 signal, Bcl-w (Bcl-w [4]): less than 3%; SPOT array signal as % of the Bim BH3 signal, Bcl-2 (Bcl-2 [5]): less than 3%
IIRNIARHAAQVGASMDRSIPPG [Bid (X)] | – | – | Kd (Mcl-1 [6]; [13]): < 1000 nM; Kd (Bcl-2 [7]): < 1000 nM; Kd (Bcl-w [8]): < 1000 nM; Kd (Bfl-1 [9]): > 10000 nM; Binder class (Kd bin) (Bcl-xL [10]; [13]): > 10000 nM
MTQEVGQLLQDMGDDVYQQYRSL [Mule] | – | – | Reduction in SPOT array signal when control mutations were introduced [11]: more than 30%; SPOT array binding specificity among five prosurvival proteins [11]: binding specifically to Mcl-1
PEIWVAQELSRAGDEFNAYYARR | > 10000 nM | < 1000 nM | –
PEIWVAQEVDRIGDEVNAYYARR | < 1000 nM | > 10000 nM | –
PEIWYAQEAKRFGDEFNAYYARR | > 10000 nM | < 1000 nM | –
PEIWYAQEIGRYGDEFNAYYARR | > 10000 nM | < 1000 nM | –
PEIWYAQEINRIGDEVNAYYARR | < 1000 nM | > 10000 nM | –
PEIWYAQEIQRYGDEFNAYYARR | > 10000 nM | < 1000 nM | –
PEIWYAQEIRRAGDEFNAYYARR | > 10000 nM | < 1000 nM | –
PEIWYAQEIRRFGDEFNAYYARR | > 10000 nM | < 1000 nM | –
PEIWYAQELERIGDEVNAYYARR | < 1000 nM | > 10000 nM | –
PEIWYAQELGRAGDEFNAYYARR | > 10000 nM | < 1000 nM | –
PEIWYAQELGRNGDEYNAYYARR | > 10000 nM | < 1000 nM | –
PEIWYAQELGRYGDEYNAYYARR | > 10000 nM | < 1000 nM | –
PEIWYAQELKRDGDEFNAYYARR | > 10000 nM | < 1000 nM | –
PEIWYAQELKRFGDENNAYYARR | > 10000 nM | < 1000 nM | –
PEIWYAQELKRYGDENNAYYARR | > 10000 nM | < 1000 nM | –
PEIWYAQELQRNGDEFNAYYARR | > 10000 nM | < 1000 nM | –
PEIWYAQELRRDGDEYNAYYARR | > 10000 nM | < 1000 nM | –
PEIWYAQELRRNGDEYNAYYARR | > 10000 nM | < 1000 nM | –
PEIWYAQEVKRYGDEYNAYYARR | > 10000 nM | < 1000 nM | –
PEIWYAQEVQRIGDEVNAYYARR | < 1000 nM | > 10000 nM | –
RLAEVCAVLLRLGDELEMIRPSV [Bok] | – | – | Reduction in SPOT array signal when control mutations were introduced [11]: more than 30%; SPOT array binding specificity among five prosurvival proteins [11]: binding specifically to Mcl-1
